Data published in the supplement of paper PMC10307832.

compound: CC(C)(C)c1nc(-c2cccc(NS(=O)(=O)c3c(F)cccc3F)c2F)c(-c2ccnc(N)n2)s1 [Dabrafenib]; experiment: relative viability (nuclei count vs DMSO), 5 days (fraction); higher = more cells survive; details: 0.003 µM
Procedure, shortened: (§1)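 Five library-drug doses, separated by factors of √10, were pinned into 1536-well plates holding lung cancer cell lines after an overnight stay at 37 °C. Cells were fixed, permeabilised and Hoechst-stained in one step after 5 days without medium change, then imaged at 4×. Viability compares treated-well with vehicle-well nuclei, counted in MetaXpress, as a median across plates. Passing plates had control CV below 25% and at least one doubling.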

| Cell Line | relative viability |
| --- | --- |
| NCI-H1993 | 0.913 |
| PC-3 [JPC-3] | 0.822 |
| NCI-H2009 | 0.883 |
| NCI-H520 | 0.974 |
| EBC-1 | 0.856 |
| LXF-289 | 0.923 |
| LC-2-ad | 0.79 |
| 201T | 0.958 |
| NCI-H1666 | 1.01 |
| NCI-H2023 | 0.877 |
| HARA | 0.737 |
| SK-MES-1 | 0.81 |

same assay, conditions: 0.009487 µM

| Cell Line | relative viability |
| --- | --- |
| NCI-H1993 | 0.945 |
| PC-3 [JPC-3] | 1.08 |
| NCI-H2009 | 0.974 |
| NCI-H2347 | 1.07 |
| NCI-H520 | 0.941 |
| EBC-1 | 0.987 |
| LXF-289 | 1 |
| NCI-H358 | 1.14 |
| LC-2-ad | 1.08 |
| 201T | 1.01 |
| NCI-H1666 | 0.943 |
| NCI-H2023 | 1.01 |
| NCI-H322M | 1.14 |
| HARA | 1 |
| NCI-H1395 | 0.971 |
| SK-MES-1 | 1.08 |

same assay, conditions: 0.03 µM

| Cell Line | relative viability |
| --- | --- |
| NCI-H1993 | 0.966 |
| PC-3 [JPC-3] | 1.11 |
| NCI-H2009 | 0.894 |
| NCI-H2347 | 0.877 |
| NCI-H520 | 0.795 |
| EBC-1 | 0.895 |
| LXF-289 | 1.16 |
| NCI-H358 | 0.932 |
| LC-2-ad | 1 |
| 201T | 0.914 |
| NCI-H1666 | 1.03 |
| NCI-H2023 | 1.01 |
| NCI-H1395 | 0.854 |
| SK-MES-1 | 1.03 |

same assay, conditions: 0.09487 µM

| Cell Line | relative viability |
| --- | --- |
| NCI-H1993 | 1.12 |
| PC-3 [JPC-3] | 1.03 |
| NCI-H2009 | 0.625 |
| NCI-H2347 | 0.811 |
| NCI-H520 | 0.884 |
| EBC-1 | 0.533 |
| LXF-289 | 0.944 |
| NCI-H358 | 1.03 |
| LC-2-ad | 0.892 |
| 201T | 0.987 |
| NCI-H1666 | 0.984 |
| NCI-H2023 | 0.948 |
| NCI-H322M | 0.943 |
| HARA | 0.922 |
| NCI-H1395 | 0.774 |
| SK-MES-1 | 0.954 |

same assay, conditions: 0.3 µM

| Cell Line | relative viability |
| --- | --- |
| NCI-H1993 | 1.4 |
| PC-3 [JPC-3] | 1.13 |
| NCI-H2009 | 0.628 |
| NCI-H2347 | 0.89 |
| NCI-H520 | 0.921 |
| EBC-1 | 0.391 |
| LXF-289 | 1.14 |
| NCI-H358 | 1.17 |
| LC-2-ad | 1.06 |
| 201T | 1.04 |
| NCI-H1666 | 1.01 |
| NCI-H2023 | 1.07 |
| NCI-H322M | 0.9 |
| HARA | 1.12 |
| NCI-H1395 | 0.788 |
| SK-MES-1 | 0.934 |

compound: NC(=O)c1ccc(N(C(N)=O)c2c(F)cccc2F)nc1-c1ccc(F)cc1F [VX-702]; experiment: as above; details: 0.02 µM
Procedure, shortened: as §1

| Cell Line | relative viability |
| --- | --- |
| NCI-H1993 | 0.876 |
| PC-3 [JPC-3] | 1.11 |
| NCI-H2009 | 1.23 |
| NCI-H2347 | 1.05 |
| NCI-H520 | 0.969 |
| EBC-1 | 1.08 |
| LXF-289 | 1.01 |
| NCI-H358 | 0.965 |
| LC-2-ad | 1.04 |
| 201T | 0.981 |
| NCI-H1666 | 0.968 |
| NCI-H2023 | 1.03 |
| NCI-H322M | 0.979 |
| HARA | 0.964 |
| NCI-H1395 | 0.971 |
| SK-MES-1 | 0.998 |

same assay, conditions: 0.2 µM

| Cell Line | relative viability |
| --- | --- |
| NCI-H1993 | 0.874 |
| PC-3 [JPC-3] | 0.988 |
| NCI-H2009 | 1.15 |
| NCI-H2347 | 1.1 |
| NCI-H520 | 0.925 |
| EBC-1 | 0.999 |
| LXF-289 | 1.01 |
| NCI-H358 | 0.857 |
| LC-2-ad | 1.01 |
| 201T | 1 |
| NCI-H1666 | 0.854 |
| NCI-H2023 | 1.04 |
| NCI-H322M | 0.888 |
| HARA | 0.897 |
| NCI-H1395 | 0.909 |
| SK-MES-1 | 0.966 |

same assay, conditions: 0.6325 µM

| Cell Line | relative viability |
| --- | --- |
| NCI-H1993 | 1.04 |
| PC-3 [JPC-3] | 1.13 |
| NCI-H2009 | 1.2 |
| NCI-H2347 | 1.04 |
| NCI-H520 | 1.03 |
| EBC-1 | 0.968 |
| LXF-289 | 1.08 |
| NCI-H358 | 0.916 |
| LC-2-ad | 1.05 |
| 201T | 1.01 |
| NCI-H1666 | 0.972 |
| NCI-H2023 | 1.01 |
| NCI-H322M | 1.01 |
| HARA | 0.965 |
| NCI-H1395 | 0.97 |
| SK-MES-1 | 0.944 |

same assay, conditions: 2 µM

| Cell Line | relative viability |
| --- | --- |
| NCI-H1993 | 0.862 |
| PC-3 [JPC-3] | 1.06 |
| NCI-H2009 | 1.26 |
| NCI-H2347 | 1.01 |
| NCI-H520 | 1.07 |
| EBC-1 | 1.08 |
| LXF-289 | 1.02 |
| NCI-H358 | 1.1 |
| LC-2-ad | 1.06 |
| 201T | 0.976 |
| NCI-H1666 | 0.75 |
| NCI-H2023 | 1.18 |
| NCI-H322M | 1.02 |
| HARA | 0.969 |
| NCI-H1395 | 1.03 |
| SK-MES-1 | 0.999 |
